How the values were obtained:
Hepatotoxicity [1] = experiment: Literature-mined compound from Fourches et al multi-species drug-induced liver injury (DILI) dataset, effect in humans; settings: human
Hepatotoxicity [2] = experiment: Literature-mined compound from Fourches et al multi-species drug-induced liver injury (DILI) dataset, effect in rodents; settings: rodentia
Hepatotoxicity [3] = experiment: Literature-mined compound from Fourches et al multi-species drug-induced liver injury (DILI) dataset, effect in non-rodents

Question: How did the Hepatotoxicity (Hepatotoxicity [1]) turn out when `Cc1ccc(N(CC2=NCCN2)c2cccc(O)c2)cc1` [PHENTOLAMINE] was run?
Answer: no drug-induced liver injury reported

Question: What about the Hepatotoxicity (Hepatotoxicity [2]) of the same molecule?
Answer: drug-induced liver injury reported

Question: And the Hepatotoxicity (Hepatotoxicity [3])?
Answer: drug-induced liver injury reported

Question: `O=C(O)Cc1ccccc1` [PHENYLACETIC ACID] was tested. Which Hepatotoxicity (Hepatotoxicity [1]) did it give?
Answer: no drug-induced liver injury reported

Question: And the Hepatotoxicity (Hepatotoxicity [2])?
Answer: drug-induced liver injury reported

Question: And the Hepatotoxicity (Hepatotoxicity [3])?
Answer: no drug-induced liver injury reported

Question: Which results are given for `CNC[C@H](O)c1cccc(O)c1` [PHENYLEPHRINE]?
Answer: Hepatotoxicity (Hepatotoxicity [1]): drug-induced liver injury reported; Hepatotoxicity (Hepatotoxicity [2]): drug-induced liver injury reported; Hepatotoxicity (Hepatotoxicity [3]): drug-induced liver injury reported

Question: For `OC(CNc1ccccn1)c1ccccc1` (stereo unspecified) [PHENYRAMIDOL], which Hepatotoxicity (Hepatotoxicity [1]) is on record?
Answer: drug-induced liver injury reported

Question: What about the Hepatotoxicity (Hepatotoxicity [2]) of the same molecule?
Answer: no drug-induced liver injury reported

Question: And the Hepatotoxicity (Hepatotoxicity [3])?
Answer: no drug-induced liver injury reported

Question: For `O=C1NC(=O)C(c2ccccc2)(c2ccccc2)N1` [PHENYTOIN], which Hepatotoxicity (Hepatotoxicity [1]; Liver) is on record?
Answer: drug-induced liver injury reported

Question: And the Hepatotoxicity (Hepatotoxicity [2]; Liver)?
Answer: drug-induced liver injury reported

Question: What about the Hepatotoxicity (Hepatotoxicity [3]; Liver) of the same molecule?
Answer: drug-induced liver injury reported

Question: `CNC(=O)Oc1ccc2c(c1)[C@]1(C)CCN(C)[C@@H]1N2C` [PHYSOSTIGMINE] was tested. Which Hepatotoxicity (Hepatotoxicity [1]) did it give?
Answer: no drug-induced liver injury reported

Question: What about the Hepatotoxicity (Hepatotoxicity [2]) of the same molecule?
Answer: drug-induced liver injury reported

Question: And the Hepatotoxicity (Hepatotoxicity [3])?
Answer: no drug-induced liver injury reported

Question: For `CC[C@@H]1C(=O)OC[C@@H]1Cc1cncn1C` [PILOCARPINE], which Hepatotoxicity (Hepatotoxicity [1]) is on record?
Answer: no drug-induced liver injury reported

Question: And the Hepatotoxicity (Hepatotoxicity [2])?
Answer: drug-induced liver injury reported

Question: What about the Hepatotoxicity (Hepatotoxicity [3]) of the same molecule?
Answer: no drug-induced liver injury reported

Question: Which results are given for `N=C(N)NN` [PIMAGEDINE]?
Answer: Hepatotoxicity (Hepatotoxicity [1]): no drug-induced liver injury reported; Hepatotoxicity (Hepatotoxicity [2]): drug-induced liver injury reported; Hepatotoxicity (Hepatotoxicity [3]): no drug-induced liver injury reported

Question: What does the source list for `O=c1[nH]c2ccccc2n1C1CCN(CCCC(c2ccc(F)cc2)c2ccc(F)cc2)CC1` [PIMOZIDE]?
Answer: Hepatotoxicity (Hepatotoxicity [1]): drug-induced liver injury reported; Hepatotoxicity (Hepatotoxicity [2]): no drug-induced liver injury reported; Hepatotoxicity (Hepatotoxicity [3]): no drug-induced liver injury reported

Question: Which results are given for `CC(N/C(=N\C#N)Nc1ccncc1)C(C)(C)C` (stereo unspecified) [PINACIDIL ANHYDROUS]?
Answer: Hepatotoxicity (Hepatotoxicity [1]): drug-induced liver injury reported; Hepatotoxicity (Hepatotoxicity [2]): drug-induced liver injury reported; Hepatotoxicity (Hepatotoxicity [3]): no drug-induced liver injury reported

Question: `CCn1cc(C(=O)O)c(=O)c2cnc(N3CCNCC3)nc21` [PIPEMIDIC ACID] was tested. Which Hepatotoxicity (Hepatotoxicity [1]) did it give?
Answer: drug-induced liver injury reported

Question: And the Hepatotoxicity (Hepatotoxicity [2])?
Answer: no drug-induced liver injury reported

Question: And the Hepatotoxicity (Hepatotoxicity [3])?
Answer: no drug-induced liver injury reported

Question: For `CCN1CCN(C(=O)N[C@@H](C(=O)N[C@@H]2C(=O)N3[C@@H]2SC(C)(C)[C@@H]3C(=O)O)c2ccccc2)C(=O)C1=O` [PIPERACILLIN], which Hepatotoxicity (Hepatotoxicity [1]) is on record?
Answer: no drug-induced liver injury reported

Question: What about the Hepatotoxicity (Hepatotoxicity [2]) of the same molecule?
Answer: drug-induced liver injury reported

Question: What about the Hepatotoxicity (Hepatotoxicity [3]) of the same molecule?
Answer: drug-induced liver injury reported

Question: For `C1CNCCN1` [PIPERAZINE], which Hepatotoxicity (Hepatotoxicity [1]; Liver) is on record?
Answer: no drug-induced liver injury reported

Question: What about the Hepatotoxicity (Hepatotoxicity [2]; Liver) of the same molecule?
Answer: drug-induced liver injury reported

Question: And the Hepatotoxicity (Hepatotoxicity [3]; Liver)?
Answer: no drug-induced liver injury reported

Question: For `CCCCOCCOCCOCc1cc2c(cc1CCC)OCO2` [PIPERONYL BUTOXIDE], which Hepatotoxicity (Hepatotoxicity [1]; Liver) is on record?
Answer: no drug-induced liver injury reported

Question: What about the Hepatotoxicity (Hepatotoxicity [2]; Liver) of the same molecule?
Answer: drug-induced liver injury reported

Question: What about the Hepatotoxicity (Hepatotoxicity [3]; Liver) of the same molecule?
Answer: no drug-induced liver injury reported

Question: Which Hepatotoxicity (Hepatotoxicity [1]) does the source give for `Cc1ccc(=O)n(-c2ccccc2)c1` [PIRFENIDONE] here?
Answer: no drug-induced liver injury reported

Question: What about the Hepatotoxicity (Hepatotoxicity [2]) of the same molecule?
Answer: drug-induced liver injury reported

Question: And the Hepatotoxicity (Hepatotoxicity [3])?
Answer: drug-induced liver injury reported

Question: With `COc1ccc(OC)c(Cc2cnc3nc(N)nc(N)c3c2C)c1` [PIRITREXIM] as the molecule, how does the Hepatotoxicity (Hepatotoxicity [1]) read?
Answer: drug-induced liver injury reported

Question: And the Hepatotoxicity (Hepatotoxicity [2])?
Answer: no drug-induced liver injury reported

Question: And the Hepatotoxicity (Hepatotoxicity [3])?
Answer: no drug-induced liver injury reported

Question: With `CN1C(C(=O)Nc2ccccn2)=C(O)c2ccccc2S1(=O)=O` [PIROXICAM] as the molecule, how does the Hepatotoxicity (Hepatotoxicity [1]) read?
Answer: drug-induced liver injury reported

Question: And the Hepatotoxicity (Hepatotoxicity [2])?
Answer: drug-induced liver injury reported

Question: And the Hepatotoxicity (Hepatotoxicity [3])?
Answer: no drug-induced liver injury reported

Question: With `CC(C(=O)O)c1ccc(N2CC=CC2)c(Cl)c1` (stereo unspecified) [PIRPROFEN] as the molecule, how does the Hepatotoxicity (Hepatotoxicity [1]) read?
Answer: drug-induced liver injury reported

Question: And the Hepatotoxicity (Hepatotoxicity [2])?
Answer: drug-induced liver injury reported

Question: What about the Hepatotoxicity (Hepatotoxicity [3]) of the same molecule?
Answer: no drug-induced liver injury reported

Question: `O=C(O)C[C@H](O)C[C@H](O)/C=C/c1c(C2CC2)nc2ccccc2c1-c1ccc(F)cc1` [PITAVASTATIN] was tested. Which Hepatotoxicity (Hepatotoxicity [1]) did it give?
Answer: drug-induced liver injury reported

Question: And the Hepatotoxicity (Hepatotoxicity [2])?
Answer: drug-induced liver injury reported

Question: What about the Hepatotoxicity (Hepatotoxicity [3]) of the same molecule?
Answer: no drug-induced liver injury reported

Question: How did the Hepatotoxicity (Hepatotoxicity [1]) turn out when `CN1CCC(=C2c3ccccc3CCc3sccc32)CC1` [PIZOTYLINE] was run?
Answer: drug-induced liver injury reported

Question: What about the Hepatotoxicity (Hepatotoxicity [2]) of the same molecule?
Answer: no drug-induced liver injury reported

Question: What about the Hepatotoxicity (Hepatotoxicity [3]) of the same molecule?
Answer: no drug-induced liver injury reported

Question: Which results are given for `CO[C@H](C(=O)[C@@H](O)[C@@H](C)O)[C@@H]1Cc2cc3cc(O[C@H]4C[C@@H](O[C@H]5C[C@@H](O)[C@H](O)[C@@H](C)O5)[C@H](O)[C@@H](C)O4)c(C)c(O)c3c(O)c2C(=O)[C@H]1O[C@H]1C[C@@H](O[C@H]2C[C@@H](O[C@H]3C[C@](C)(O)[C@H](O)[C@@H](C)O3)[C@@H](O)[C@@H](C)O2)[C@H](O)[C@@H](C)O1` [PLICAMYCIN]?
Answer: Hepatotoxicity (Hepatotoxicity [1]): drug-induced liver injury reported; Hepatotoxicity (Hepatotoxicity [2]): drug-induced liver injury reported; Hepatotoxicity (Hepatotoxicity [3]): no drug-induced liver injury reported

Question: For `COc1cc([C@@H]2c3cc4c(cc3[C@H](O)[C@H]3COC(=O)[C@H]23)OCO4)cc(OC)c1OC` [PODOFILOX], which Hepatotoxicity (Hepatotoxicity [1]) is on record?
Answer: no drug-induced liver injury reported

Question: And the Hepatotoxicity (Hepatotoxicity [2])?
Answer: drug-induced liver injury reported

Question: What about the Hepatotoxicity (Hepatotoxicity [3]) of the same molecule?
Answer: no drug-induced liver injury reported

Question: For `C[C@]12CC[C@H](O)CC1=CC[C@@H]1[C@@H]2CC[C@]2(C)C(=O)CC[C@@H]12` [PRASTERONE], which Hepatotoxicity (Hepatotoxicity [1]) is on record?
Answer: drug-induced liver injury reported

Question: And the Hepatotoxicity (Hepatotoxicity [2])?
Answer: drug-induced liver injury reported

Question: What about the Hepatotoxicity (Hepatotoxicity [3]) of the same molecule?
Answer: no drug-induced liver injury reported

Question: What does the source list for `CC[C@H](C)C(=O)O[C@H]1C[C@H](O)C=C2C=C[C@H](C)[C@H](CC[C@@H](O)C[C@@H](O)CC(=O)O)[C@H]21` [PRAVASTATIN]?
Answer: Hepatotoxicity (Hepatotoxicity [1]): drug-induced liver injury reported; Hepatotoxicity (Hepatotoxicity [2]): drug-induced liver injury reported; Hepatotoxicity (Hepatotoxicity [3]): drug-induced liver injury reported

Question: With `COc1cc2nc(N3CCN(C(=O)c4ccco4)CC3)nc(N)c2cc1OC` [PRAZOSIN] as the molecule, how does the Hepatotoxicity (Hepatotoxicity [1]) read?
Answer: drug-induced liver injury reported

Question: What about the Hepatotoxicity (Hepatotoxicity [2]) of the same molecule?
Answer: drug-induced liver injury reported

Question: What about the Hepatotoxicity (Hepatotoxicity [3]) of the same molecule?
Answer: no drug-induced liver injury reported

Question: What does the source list for `C[C@]12C=CC(=O)C=C1CC[C@@H]1[C@@H]2[C@@H](O)C[C@@]2(C)[C@H]1CC[C@]2(O)C(=O)CO` [PREDNISOLONE]?
Answer: Hepatotoxicity (Hepatotoxicity [1]): drug-induced liver injury reported; Hepatotoxicity (Hepatotoxicity [2]): drug-induced liver injury reported; Hepatotoxicity (Hepatotoxicity [3]): no drug-induced liver injury reported

Question: For `C[C@]12C=CC(=O)C=C1CC[C@@H]1[C@@H]2C(=O)C[C@@]2(C)[C@H]1CC[C@]2(O)C(=O)CO` [PREDNISONE], which Hepatotoxicity (Hepatotoxicity [1]) is on record?
Answer: drug-induced liver injury reported

Question: What about the Hepatotoxicity (Hepatotoxicity [2]) of the same molecule?
Answer: no drug-induced liver injury reported

Question: What about the Hepatotoxicity (Hepatotoxicity [3]) of the same molecule?
Answer: drug-induced liver injury reported
